Test results as given in patent US12680074B2, “Antigen presenting T cells, sensitized, manufactured T cells and methods of treatment using the same” (RAPA THERAPEUTICS, LLC, priority 2020, dated 2026).

Experiments:
[1] = tested on: pancreatic cancer cell line MIA PaCa-2 and lung cancer cell line H23; test: Example 9 sensitization of manufactured T cells by lysate of etoposide-treated tumor cells, cytokine re-stimulation read-out (FIG. 37); format: cell-based, human
Method: Manufactured T cells for this and all of the following examples were produced by the following procedure: peripheral blood apheresis PBMC product was subjected to Ficoll gradient centrifugation and the resultant cells were plated at 15×10^6 cells/mL; at culture initiation, temsirolimus was added at a final concentration of 2 μM and basiliximab was added at a final concentration of 30 μg/mL; after 24 hours of culture, IFN-α was added to achieve a final concentration of 20,000 IU/mL; no other cytokines were added; no co-stimulation was provided; the manufactured T cells were harvested on day 6 of culture for further use.
The pancreatic cancer cell line MIA PaCa-2 and the lung cancer cell line H23 were treated for 72-hours with etoposide, an inducer of immunogenic cell death, at concentrations of 0.5, 5.0 and 50 μM. Briefly, a cell concentration of 5×10^6 tumor cells/mL was utilized to generate 100 μL of lysate, which was then used to directly stimulate manufactured T cells. That is, there was no separate T cell APC manufacturing step used for this experiment (lysate added directly to effector T cells). The tumor cell lysate was then added to manufactured T cells which were expanded in X-Vivo 20 media containing IL-2 (100 IU/mL), IL-7 (10 ng/mL), and IL-15 (10 ng/mL).

[2] = tested on: p62; test: Western blot of p62 after 16-hr pre-incubation (FIG. 11); format: cell-based, human
Method: (§1) For FIGS. 11-13, human CD4^+ and CD8^+ T cells were cultured using a 16-hr pre-incubation interval prior to the addition of 3/28 beads at the reduced ratio of 1:3 beads-to-T cells. As indicated in FIGS. 11-13, the various T cell cultures received different methods of mTOR inhibition (rapamycin at 1.0 μM; temsirolimus at 1.0 or 0.1 μM), different conditions of exogenous IL-2 addition, and different conditions relative to addition of the anti-IL-2 receptor monoclonal antibody, daclizumab. After the 16-hr pre-incubation interval, cells were harvested from the T cell cultures, protein was isolated, and p62 (FIG. 11), phospho-RAPTOR (FIG. 12), or BIM (FIG. 13) and the housekeeper gene β-actin were quantified by western blot.

[3] = tested on: TBET; test: Intra-cellular TBET expression at day 6 of ex vivo T cell culture (FIG. 1B); format: cell-based
Method: (§2) T cells were cultured ex vivo, as indicated, using various ratios of anti-CD3, anti-CD28 beads to T cells (1:1 or 1:12); the mTOR inhibitor temsirolimus (1 μM); without or with the anti-IL-2 receptor monoclonal antibody daclizumab (5 or 50 μg/ml); and either Th1 polarization cytokines (IFN-alpha; 10,000 IU/ml) or control regulatory T cell polarization (IL-2 plus TGF-β). At day 6 of culture, the T cells were evaluated for intra-cellular expression of the regulatory T cell transcription factor FoxP3 and the Th1 transcription factor TBET. (FIGS. 1A-1B).

[4] = tested on: phospho-RAPTOR; test: Western blot of phospho-RAPTOR after 16-hr pre-incubation (FIG. 12); format: cell-based, human; details: high-dose temsirolimus compared to low-dose temsirolimus or high-dose rapamycin
Method: as §1

[5] = tested on: IFN-γ and TNF-α secretion by CD4+ and CD8+ T cells; test: Day 6 / day 13 cytokine secretion after 3:1 3/28 bead co-stimulation, Luminex (FIGS. 3A-3B); format: cell-based
Method: To evaluate this, we tested cytokine secretion potential of the manufactured T cells at the end of cell culture (day 6) and then again one week after ex vivo expansion after maximal co-stimulation (3/28 bead-to-T cell ratio, 3:1) and propagation in media devoid of any inhibitors. In FIGS. 3A-3B, CD4^+ and CD8^+ T cells were purified and cultured for 6-days either with or without a 16-hr interval of pre-incubation prior to co-stimulation (1:1 ratio of 3/28 beads-to-T cells). As indicated, temsirolimus was added at concentrations of either 1.0 or 0.1 μM; all cultures were supplemented with IFN-α (10,000 IU/ml) and daclizumab (50 μg/ml). On day 6 of culture, the resultant T cells were co-stimulated for 24 hr using a 3:1 ratio of 3/28 beads; the supernatant was tested for cytokine content by Luminex assay (results are described as pg per ml of cytokine secreted per million cells per 24 hr). […] N.A, abbreviation indicates not applicable (insufficient T cell yield to perform assay).

[6] = tested on: FoxP3; test: Intra-cellular FoxP3 expression at day 6 of ex vivo T cell culture (FIG. 1A); format: cell-based
Method: as §2

[7] = temsirolimus plus daclizumab under TREG-permissive conditions: bead ratio 1:12, no IFN-α, exogenous IL-2 plus TGF-β

Row | Molecule | sensitizing manufactured T cells to cytokine secretion in response to repeat exposure to lysate ([1]; 72-hour incubation of MIA PaCa-2 or H23 with etoposide 0.5 to 5.0 μM) | T cell sensitization ([1]; etoposide at the higher concentration of 50 μM) | autophagy marker p62 ([2]; pre-incubation, 1:3 beads, daclizumab, rapamycin 1 μM or temsirolimus 1.0 or 0.1 μM) | expression of TBET ([3]; combination of temsirolimus and an anti-IL-2 receptor monoclonal antibody) | phosphorylated form of RAPTOR [4] | day 13 T cell IFN-γ and TNF-α secretion ([5]; pre-incubation plus high-dose temsirolimus, after one week without inhibitors) | day 6 T cell cytokine secretion potential ([5]; temsirolimus 0.1 μM) | day 6 T cell IFN-γ and TNF-α secretion after 24 hr of maximal co-stimulation ([5]; temsirolimus 1.0 μM, with or without overnight pre-incubation) | FoxP3 expression ([6]; exogenous IL-2 added in combination with IFN-α) | T cell expression of FoxP3 ([6]; temsirolimus 1.0 μM with IFN-α, relative to day 0 input T cell population) | FoxP3 expression [6, 7] | autophagy marker p62 ([2]; IL-2 receptor blockade eliminated from the regimen) | TBET expression, dose response ([3]; 50 μg/ml versus 5 μg/ml) | FoxP3 expression, dose-response ([6]; antibody at 50 μg/ml versus 5 μg/ml) | FoxP3 expression ([6]; blockade of the IL-2 receptor added to temsirolimus and IFN-α)
1 | COc1cc([C@@H]2c3cc4c(cc3[C@@H](O[C@@H]3O[C@@H]5CO[C@@H](C)O[C@H]5[C@H](O)[C@H]3O)[C@H]3COC(=O)[C@H]23)OCO4)cc(OC)c1O [etoposide] | effective | not effective | – | – | – | – | – | – | – | – | – | – | – | – | –
2 | CO[C@H]1C[C@@H]2CC[C@@H](C)[C@@](O)(O2)C(=O)C(=O)N2CCCC[C@H]2C(=O)O[C@H]([C@H](C)C[C@@H]2CC[C@@H](OC(=O)C(C)(CO)CO)[C@H](OC)C2)CC(=O)[C@H](C)/C=C(\C)[C@@H](O)[C@@H](OC)C(=O)[C@H](C)C[C@H](C)/C=C/C=C/C=C/1C [temsirolimus] | – | – | autophagy could be realized | increased expression of TBET | lower levels of phospho-RAPTOR | highest | only partially reduced | very low levels | not effective | reduced | not effective | – | – | – | –
3 | daclizumab: anti-IL-2 receptor monoclonal antibody (antibody, chains of the INN, looked up, V domains shown) VH: QVQLVQSGAEVKKPGSSVKVSCKASGYTFTSYRMHWVRQAPGQGLEWIGYINPSTGYTEYNQKFKDKATITADESTNTAYMELSSLRSEDTAVYYCARGGGVFDYWGQGTLVTVSS VL: DIQMTQSPSTLSASVGDRVTITCSASSSISYMHWYQQKPGKAPKLLIYTTSNLASGVPARFSGSGSGTEFTLTISSLQPDDFATYYCHQRSTYPLTFGQGTKVEVK | – | – | – | – | – | – | – | – | – | – | not effective | substantially blunted the induction of autophagy | higher degree | more effective | further reduced
